These results are taken from ChEMBL document CHEMBL1134864, “Synthesis and biological evaluation of 9-substituted tetracycline derivatives” (2002).

Values after ≈ are worked out from the molar mass of the structure shown. A value given as a limit tells only on which side of the number the result lay.

Holding throughout (assay type): functional
For one experiment, the system named is Enterococcus faecalis. The experiment is described as follows: Minimum inhibition concentration against Enterococcus faecalis.
Experiment [1] has as its system Staphylococcus aureus. Briefly: Minimum inhibition concentration against Methicillin resistant Staphylococcus aureus.
For experiment [2], the system named is Staphylococcus aureus. Briefly: Minimum inhibition concentration against Staphylococcus aureus.

For orientation: MIC means the lowest concentration that inhibits growth of the organism. A lower MIC goes with a more susceptible organism. For the compound `CN(C)c1ccc(O)c2c1C[C@H]1C[C@H]3[C@H](N(C)C)C(O)=C(C(N)=O)C(=O)[C@@]3(O)C(O)=C1C2=O` [MINOCYCLINE], the figures for the MIC in the experiment on Enterococcus faecalis, against Staphylococcus aureus [1] and with Staphylococcus aureus [2] were below 0.098 µg/mL, 6.25 µg/mL (≈ 13.7 µM) and 3.12 µg/mL (≈ 6.82 µM), respectively.
Regarding `C[C@H]1c2ccc(-c3ccc(N)cc3)c(O)c2C(=O)C2=C(O)[C@]3(O)C(O)=C(C(N)=O)C(=O)[C@@H](N(C)C)C3[C@@H](O)C21` (stereo partly specified), the MIC against Enterococcus faecalis came to 3.12 µg/mL (≈ 5.83 µM); against Staphylococcus aureus [1] it was 1.56 µg/mL (≈ 2.91 µM); with Staphylococcus aureus [2] it was 3.12 µg/mL (≈ 5.83 µM).
In the case of `C[C@H]1c2ccc(-c3ccc([N+](=O)[O-])cc3)c(O)c2C(=O)C2=C(O)[C@]3(O)C(O)=C(C(N)=O)C(=O)[C@@H](N(C)C)C3[C@@H](O)C21` (stereo partly specified), the MIC was determined as 0.78 µg/mL (≈ 1.38 µM) in the experiment with Enterococcus faecalis, 0.39 µg/mL (≈ 0.69 µM) against Staphylococcus aureus [1] and 3.12 µg/mL (≈ 5.52 µM) against Staphylococcus aureus [2].
As for `C=Cc1ccc2c(c1O)C(=O)C1=C(O)[C@]3(O)C(O)=C(C(N)=O)C(=O)[C@@H](N(C)C)C3[C@@H](O)C1[C@H]2C` (stereo partly specified), the figures for the MIC with Enterococcus faecalis, in the experiment with Staphylococcus aureus [1] and with Staphylococcus aureus [2] were below 0.098 µg/mL, below 0.098 µg/mL and 1.56 µg/mL (≈ 3.32 µM), respectively.
For the compound `C[C@H]1c2ccc(-c3ccccc3)c(O)c2C(=O)C2=C(O)[C@]3(O)C(O)=C(C(N)=O)C(=O)[C@@H](N(C)C)C3[C@@H](O)C21` (stereo partly specified), the MIC in the experiment on Enterococcus faecalis was 1.56 µg/mL (≈ 3 µM); in the experiment on Staphylococcus aureus [1] it was 0.78 µg/mL (≈ 1.5 µM); in the experiment on Staphylococcus aureus [2], 3.12 µg/mL (≈ 5.99 µM).
Consider `C#Cc1ccc2c(c1O)C(=O)C1=C(O)[C@]3(O)C(O)=C(C(N)=O)C(=O)[C@@H](N(C)C)C3[C@@H](O)C1[C@H]2C` (stereo partly specified), for which the MIC was determined as 0.78 µg/mL (≈ 1.67 µM) against Enterococcus faecalis, 0.39 µg/mL (≈ 0.833 µM) with Staphylococcus aureus [1] and 1.56 µg/mL (≈ 3.33 µM) in the experiment on Staphylococcus aureus [2].
As to `C[C@H]1c2cccc(O)c2C(=O)C2=C(O)[C@]3(O)C(=O)C(C(N)=O)=C(O)[C@@H](N(C)C)[C@@H]3[C@@H](O)[C@@H]21.O` [DOXYCYCLINE], the results for the MIC in the experiment with Enterococcus faecalis, against Staphylococcus aureus [1] and against Staphylococcus aureus [2] were 6.25 µg/mL, 6.25 µg/mL and above 50 µg/mL, respectively.
